Broadly, the cell viability is a read-out of living cells in per cent, often relative to untreated cells. Read a high cell viability as less harm to the cells.

This is an account of results in US9044476B2, “Use of uraria in promoting osteogenesis or providing neuroprotection” (TAIPEI MEDICAL UNIVERSITY, priority 2013, dated 2015).

Common to all, as to format: cell-based, human
For data set [1], the system named is HOb cells. Nature of the data set: Alkaline phosphatase (ALP) assay in HOb cells. As to conditions: compounds 100 μM, 72 h. Here is the method: HOb cells were seeded in 96-well plates. Twenty-four hours after plating, the old medium was discarded and the cells were treated with tested extracts (100 μg/ml) in Osteoblast Differentiation Medium for 72 h. ALP activity was assessed using the p-nitrophenyl phosphate disodium substrate. Data are shown as mean±SD (n=3). *P<0.05 and **P<0.01 as compared with control (n=3).
HOb cells were seeded in 96-well plates. Twenty-four hours after plating, the old medium was discarded and the cells were treated with tested compounds (100 μM) in Osteoblast Differentiation Medium for 72 h. ALP activity was assessed using the p-nitrophenyl phosphate disodium substrate. Data are shown as mean±SD (n=3). *P<0.05 and **P<0.01 as compared with control (n=3).
(§1) Human osteoblasts (HOb) were primary cells derived from a person from a normal femoral bone and obtained from Cell Applications (San Diego, Calif., USA). HOb cells were grown in Osteoblast Growth Medium and maintained at 37° C. in 5% CO2 humidified atmosphere. The medium was changed every other day. To maintain exponential growth, the cells were subcultured every 7 days. HOb cells were used for cell viability, differentiation, and mineralization assays.
The alkaline phosphatase (ALP) activities of U. crinita extract and its constituents were measured with p-nitrophenyl phosphate as the substrate. HOb cells were seeded in 96-well plates at a density of 4×10^3 cells per well. Twenty-four hours after plating, the old medium was discarded and the cells were treated with tested extracts or compounds in Osteoblast Differentiation Medium. After 72 hours incubation, the medium was discarded and the cells rinsed twice with cold PBS, and cells were lysed with lysis buffer (PBS containing 0.1% Triton X-100). The cellular protein concentration in supernatant was determined after incubation with BCA (bicinchoninic acid) protein reagent for 1 hour at 37° C. The reaction was stopped by adding 1M NaOH, and absorbance measured at 560 nm. Furthermore, the ALP activity in supernatant was assayed by incubation for 1 hour at 37° C. in 0.1 M NaHCO3—Na2CO3 buffer, pH 10, containing 0.1% Triton X-100, 2 mM MgSO4, and 6 mM p-nitrophenyl phosphate. The reaction was stopped by adding 1M NaOH and absorbance was measured at 405 nm. Each value was normalized to the protein concentration.

The test system of data set [2] is HOb cells. Nature of the data set: Mineralized matrix formation assay (Alizarin Red-S) in HOb cells. As to conditions: for formation of mineralized bone nodules: compounds 100 μM, 12 days. The protocol: (§2) HOb cells were plated in 24-well plates. Three days after plating, the old medium was discarded and the cells were treated with tested extracts (100 μg/ml) in mineralizing media (Osteoblast Differentiation Medium containing ascorbic acid (50 μg/ml) and β-glycerophosphate (10 mM) for 12 days. At the end of experiment, cultures were fixed in 75% ethanol, and mineralized nodule formation was assessed by Alizarin Red-S staining. The bound staining was eluted with a solution of 10% cetylpyridinium chloride and quantified using a microtiter plate reader. Data are shown as mean±SD (n=3). *P<0.05 and **P<0.01 as compared with control (n=3).
as §2, with “tested compounds” for “tested extracts”, “(100 μM)” for “(100 μg/ml)”, “Differentiation Medium)” for “Differentiation Medium”
as §1
The mineralization activities of U. crinita extract and its constituents were measured by Alizarin Red-S staining of calcium. HOb cells were seeded in 24-well plates at a density of 7×10^4 cells per well. Three days after plating, the old medium was discarded and the cells were treated with tested extracts or compounds in mineralizing media (Osteoblast Differentiation Medium) containing ascorbic acid (50 μg/ml) and β-glycerophosphate (10 mM) for 12 days. At the end of experiment, cultures were fixed in 75% ethanol, and calcium deposits were stained for 15 minutes at room temperature with Alizarin Red-S solution (40 mM, pH 4.2). The bound staining was eluted with a solution of 10% (w/v) cetylpyridinium chloride in 10 mM sodium phosphate (pH 7.0) and quantified using a ELISA reader at 550 nm.

Data set [3] relates to HOb cells. Put plainly: Cell viability (MTT) assay in HOb cells. To be noted: 100 μM, 72 hours. The protocol:
HOb cells were seeded in 96-well plates. Twenty-four hours after plating, the old medium was discarded and the cells were treated with tested compounds (100 μM) in Osteoblast Differentiation Medium for 72 h. Cell viability was assessed using the MTT assay. Data are shown as mean±SD (n=3). *P<0.05 and **P<0.01 as compared with control (n=3).
Human osteoblasts (HOb) were primary cells derived from a person from a normal femoral bone and obtained from Cell Applications (San Diego, Calif., USA). HOb cells were grown in Osteoblast Growth Medium and maintained at 37° C. in 5% CO2 humidified atmosphere. The medium was changed every other day. To maintain exponential growth, the cells were subcultured every 7 days. […]
The cell viability of U. crinita extract and its constituents were determined using the MTT assay as described elsewhere (Scudiero et al., 1988). […] The absorbance at 600 nm was recorded using an ELISA reader. […]

The structures appear in SMILES notation.

As for `O=c1cc(-c2ccc(O)cc2)oc2cc(O)c(C3OCC(O)C(O)C3OC3OCC(O)(CO)C3O)c(O)c12` (stereo not shown) [Compound 3], the ALP activity with HOb cells [1] amounted to 109.68±2.20%. The “formation of mineralized bone nodules” value in the data set with HOb cells [2] amounted to 150.10±0.80%. Besides, the “mineralization activity, ranking in words” value in the data set with HOb cells [2] (isolated compounds, 100 μM) is recorded as “most potent mineralization activity”.

For the molecule `Nc1ncnc2c1ncn2[C@@H]1O[C@H](CO)[C@@H](O)[C@H]1O` [Compound 7, adenosine], the ALP activity in the data set on HOb cells [1] is listed as 108.70±4.14%. In the data set with HOb cells [2], the “formation of mineralized bone nodules” value came to 125.21±3.75%.

In the data set with HOb cells [3], `N[C@@H](Cc1c[nH]c2ccccc12)C(=O)O` [Compound 5, tryptophan] registered a cell viability of 80.43±1.11%.

With `O=C1c2c(O)cc(O)cc2OCC1c1ccc(O)cc1O` (stereo not shown) [Compound 1, dalbergioidin], the ALP activity with HOb cells [1] is given as 114.10±4.41%. Moreover, the “formation of mineralized bone nodules” value in the data set on HOb cells [2] stood at 107.09±2.80%.

Consider `CC1=CC(=O)CC(C)(C)[C@H]1CC[C@@H](C)O[C@@H]1O[C@H](CO)[C@@H](O)[C@H](O)[C@H]1O` [Compound 9, byzantionoside B], for which, in the data set on HOb cells [1], the ALP activity turned out to be 114.81±0.18%. The “formation of mineralized bone nodules” value in the data set with HOb cells [2] is reported as 129.21±6.13%.
